Test results taken from publication PMC7160673, “A Degenerate Peptide Library Approach to Reveal Sequence Determinants of Methyllysine-Driven Protein Interactions” (Frontiers in Cell and Developmental Biology, 2020).
Where no end group is shown, it is not given here. Me2a = asymmetric dimethyl on Arg; Peg = not defined here

Columns and labels:
Assay type in all cases: binding
[1] = system: Abcam #ab8895, anti-H3K4me1; experiment: Histone peptide microarray, Abcam ab8895; conditions: Abcam ab8895 (anti-H3K4me1) hits, average signal per peptide
CST 9733 (anti-H3K27me3) = experiment: Histone peptide microarray, CST 9733; conditions: histone peptide array signal normalized to the highest peptide average per subarray, hits; CST 9733 LOT:14 dilution 1:5,000
Method: (§1) Peptide microarrays were fabricated using an Aushon 2470 microarrayer and used as described ([Cornett et al., 2017]) with the following modifications. Protein and antibody hybridization steps were performed in buffer containing 25 mM HEPES pH 7.5, 100 mM NaCl, 0.5% BSA (w/v), and 0.1% NP-40. Slides were washed 3 × 5 min in PBS supplemented with 0.1% Tween-20 between each hybridization step. Antibodies used were primary anti-GST (Sigma #7781, 1:2,000 dilution) and an AlexaFluor 647-labeled secondary antibody (Life Technologies A-21245, 1:5,000 dilution). […] Full lists of peptides queried by array analysis are in Supplementary Table S2.

[2] = system: Active Motif #39161, anti-H3K9me3; experiment: Histone peptide microarray, Active Motif 39161; conditions: Active Motif 39161 (anti-H3K9me3) hits
53BP1 TTD = experiment: Histone peptide microarray, 53BP1 TTD; conditions: 53BP1 TTD hits, average signal per peptide
Outline: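 Printed histone peptide arrays; hybridization buffer 25 mM HEPES pH 7.5 / 100 mM NaCl / 0.5% BSA / 0.1% NP-40. Washes PBS + 0.1% Tween-20, 3 × 5 min per step. Detection: anti-GST 1:2,000 → AlexaFluor 647 secondary 1:5,000.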

[3] = system: Millipore #07-449, anti-H3K27me3; experiment: Histone peptide microarray, Millipore 07-449; conditions: Millipore 07-449 (anti-H3K27me3) hits, average signal per peptide
[4] = system: ABClonal #A2355, anti-H3K4me1; experiment: Histone peptide microarray, ABclonal A2355; conditions: Abclonal A2355 (anti-H3K4me1) hits
Method: as §1

Substance | Avg Signal [1] | Avg Signal (CST 9733 (anti-H3K27me3)) | Avg Signal [2] | Avg Signal (53BP1 TTD) | Avg Signal [3] | Avg Signal [4]
ACitTKQTARKSTGGKAPRKQL-K(Biot)-NH2 [Peptide H3.1Cit2] | 0.01656 | 0.005497 | 0.002403 | 0.1308 | – | –
AR(Me2a)TK(Me3)QTARKpSTGGKAPRKQL-K(Biot)-NH2 [H3.1R2me2aK4me3S10p] | 0.0003692 | 0.01157 | 0.007954 | 0.1482 | 0.02048 | –
AR(Me2a)pTK(Me3)QTARK(Ac)STGGK(Ac)APRK(Ac)QL-K(Biot)-NH2 [H3.1R2me2aT3pK4me3K9acK14acK18ac] | 0.003812 | 0.0005148 | 0.0001961 | 0.09934 | 0.005728 | –
AR(Me)TK(Me3)QTARK(Ac)STGGK(Ac)APRK(Ac)QL-K(Biot)-NH2 [H3.1R2me1K4me3K9acK14acK18ac] | 0.01244 | 0.009005 | 0.006911 | 0.04917 | 0.05381 | –
AR(Me)TK(Me3)QTARKSTGGKAPRKQL-K(Biot)-NH2 [H3.1R2me1K4me3] | 0.01284 | 0.002343 | – | 0.08379 | 0.07195 | –
ARTK(Ac)QTARKSTGGKAPRK(Ac)QL-K(Biot)-NH2 [H3.1K4acK18ac] | 0.002862 | – | 0.0001961 | 0.07704 | – | 0.001249
ARTK(Me2)QTARK(Ac)STGGKAPRK(Ac)QL-K(Biot)-NH2 [H3.1K4me2K9acK18ac] | 0.4062 | – | 0.009454 | 0.5101 | – | 0.4042
ARTK(Me2)QTARKSTGGKAPRKQL-K(Biot)-NH2 [Peptide H3.1K4me2] | 0.3093 | – | 0.001961 | 0.3009 | – | 0.3078
ARTK(Me3)QTARKSTGGK(Ac)APRK(Ac)QL-K(Biot)-NH2 [H3.1K4me3K14acK18ac] | – | 0.006975 | 0.0136 | 0.09432 | 0.01453 | –
ARTK(Me3)QTARKSTGGK(Ac)APRKQL-K(Biot)-NH2 [H3.1K4me3K14ac] | 0.0003256 | 0.004624 | 0.009793 | 0.1175 | 0.02658 | –
ARTK(Me3)QTARKpSTGGKAPRKQL-K(Biot)-NH2 [H3.1K4me3S10p] | – | 0.002306 | 0.0006195 | 0.00608 | 0.003491 | –
ARTK(Me3)QpTARK(Ac)STGGK(Ac)APRK(Ac)QL-K(Biot)-NH2 [H3.1K4me3T6pK9acK14acK18ac] | – | 0.004429 | 0.005164 | 0.03157 | 0.0001463 | –
ARTK(Me3)QpTARKSTGGKAPRKQL-K(Biot)-NH2 [Peptide H3.1K4me3T6p] | – | 0.001818 | 0.02043 | 0.1846 | 0.009429 | –
ARTK(Me)QTARK(Ac)STGGK(Ac)APRK(Ac)QL-K(Biot)-NH2 [H3.1K4me1K9acK14acK18ac] | 0.9702 | – | 0.005174 | 0.194 | – | 0.8066
ARTK(Me)QTARK(Ac)STGGKAPRK(Ac)QL-K(Biot)-NH2 [H3.1K4me1K9acK18ac] | 0.7729 | – | 0.0008903 | 0.06582 | – | 0.6625
ARTK(Me)QTARKSTGGKAPRKQL-K(Biot)-NH2 [Peptide H3.1K4me1] | 0.89 | – | – | 0.08871 | – | 0.7621
ARTK(N3)QTARKSTGGKAPRKQL-K(Biot)-NH2 [Peptide H3.1K4N3] | 0.03034 | – | – | 0.07618 | – | 0.03523
ARTKQTAR(Me2a)KSTGGKAPRKQL-Peg-Biot (chain 2 KSTGGKAPRKQL-{Peg-Biot}; not fully specified; reading uncertain) [Peptide H3.1R8me2a] | 0.06138 | – | 0.01209 | – | – | 0.000963
ARTKQTARK(Ac)STGGK(Ac)APRK(Ac)QL-K(Biot)-NH2 [H3.1K9acK14acK18ac] | 0.2691 | – | 0.001438 | 0.1031 | – | 0.01044
ARTKQTARK(Me2)STGGKAPRKQLATKAARK(Me)SAPAT-Peg-Biot [H3.1K9me2K27me1] | 0.3474 | – | 0.02404 | – | 0.004141 | 0.05183

Substance | Avg Signal [1] | Avg Signal (CST 9733 (anti-H3K27me3)) | Avg Signal [2] | Avg Signal (53BP1 TTD) | Avg Signal [3] | Avg Signal [4]
ARTKQpTARK(Me3)STGGKAPRKQL-K(Biot)-NH2 [Peptide H3.1T6pK9me3] | – | 0.01471 | 0.3154 | 0.226 | 0.02132 | –
ATKAARKSAPATGGVK(Ac)KPHRYRPG-GK(Biotin)-OH [Peptide H3.1K36ac] | – | – | 0.009457 | – | 0.004604 | 0.001664
ATKAARKSAPATGGVK(Me2)KPHRYRPG-GK(Biotin)-OH [Peptide H3.1K36me2] | 0.1144 | – | 0.01273 | – | 0.005826 | 0.06205
ATKAARKSAPATGGVK(Me)KPHRYRPG-GK(Biotin)-OH [Peptide H3.1K36me1] | 0.0206 | – | 0.001641 | – | 0.002073 | 0.006039
Ac-APRK(Ac)QLATK(Ac)AARK(Ac)pSAPSTGG-Peg-Biot [H3.3K18acK23acK27acS28p] | – | – | 0.004946 | – | 0.0009622 | 0.0001631
Ac-APRK(Me3)QLATKAARKSAPSTGGVK(Me3)KPHRY-GG-K(Biot)-NH2 [H3.3K18me3K36me3] | 0.006536 | 0.04154 | 0.4275 | 0.1772 | 0.2482 | –
Ac-APRKQLATK(Me)AARKSAPATGG-Peg-K(Biot)-NH2 [Peptide H3.1K23me1] | 0.124 | – | 0.004448 | – | 0.003618 | 0.3577
Ac-IAQDFK(Me2)TDLRF-Peg-K(Biot)-NH2 [Peptide H3.1K79me2] | – | – | – | 0.2119 | 0.002961 | 0.0001532
Ac-IAQDFK(Me3)TDLRF-Peg-K(Biot)-NH2 [Peptide H3.1K79me3] | 0.06064 | – | – | 0.03452 | – | 0.03778
Ac-SGRGK(Ac)GGK(Me)GLGK(Ac)GGAKRHRKVLR-Peg-Biot [H4K5acK8me1K12ac] | 0.003463 | – | 0.01545 | – | 0.005126 | 0.01786
Ac-SGRGK(Ac)GGKGLGKGGAKRHRK(Ac)VLR-Peg-Biot [Peptide H4K5acK20ac] | – | – | 0.0005946 | – | – | 0.0007556
Ac-SGRGK(Ac)QGGK(Ac)ARAK(Ac)AK(Ac)TR-Peg-Biot [H2AK5acK9acK13acK15ac] | – | – | 0.005245 | 0.0113 | 0.001671 | 0.0056
Ac-SGRGK(Ac)QGGKARAKAKTR-Peg-Biot [Peptide H2AK5ac] | 0.04469 | – | – | 0.06555 | – | 0.0257
Ac-SGRGK(Me)GGKGLGKGGAKRHRKVLR-Peg-Biot [Peptide H4K5me1] | 0.01832 | – | 0.04055 | – | 0.002242 | 0.006523
Ac-SGRGKGGK(Me)GLGKGGAKRHRKVLR-Peg-Biot [Peptide H4K8me1] | 0.01379 | – | 0.0007159 | – | – | 0.02626
Ac-SGRGKGGKGLGK(Ac)GGAKRHRKVLR-Peg-Biot [Peptide H4K12ac] | 0.001961 | 0.000354 | 0.01336 | 0.1511 | – | –
Biot-Peg-GKKATQApSQEY-OH [Peptide H2A.XS139p] | 0.05956 | – | – | – | 0.0003137 | 0.02695
H3.1.1(1-32) | 0.3398 | – | – | – | 0.003069 | 0.04529
PEPAK(Me3)SAPAPKKGSKKAVTKAQKK-Peg-Biot [Peptide H2BK5me3] | – | 0.00351 | 0.03906 | 0.04404 | 0.1635 | –
PEPAKSAPAPKK(Ac)GSK(Ac)K(Ac)AVTK(Ac)AQKK-Peg-Biot [H2BK12acK15acK16acK20ac] | – | – | 0.009853 | – | – | 0.0003507
